Like-named read-outs stand apart in the source and are kept apart here.
Key:
[1] = biological target: T1, Glutaminase(Brain) (Mus musculus, UniProt D3Z7P3); assay: Glutaminase enzyme activity using glutaminase enzyme from mice brain/kidney homogenate (Nessler's reagent, ammonia); assay type: biochemical; settings: for inhibition at 0.1 µM: read-out: Glutaminase(Brain) activity % inhibition 0.1 μM; for inhibition at 1 µM: read-out: Glutaminase(Brain) activity % inhibition @1 μM
T1 sequence (D3Z7P3 55-674): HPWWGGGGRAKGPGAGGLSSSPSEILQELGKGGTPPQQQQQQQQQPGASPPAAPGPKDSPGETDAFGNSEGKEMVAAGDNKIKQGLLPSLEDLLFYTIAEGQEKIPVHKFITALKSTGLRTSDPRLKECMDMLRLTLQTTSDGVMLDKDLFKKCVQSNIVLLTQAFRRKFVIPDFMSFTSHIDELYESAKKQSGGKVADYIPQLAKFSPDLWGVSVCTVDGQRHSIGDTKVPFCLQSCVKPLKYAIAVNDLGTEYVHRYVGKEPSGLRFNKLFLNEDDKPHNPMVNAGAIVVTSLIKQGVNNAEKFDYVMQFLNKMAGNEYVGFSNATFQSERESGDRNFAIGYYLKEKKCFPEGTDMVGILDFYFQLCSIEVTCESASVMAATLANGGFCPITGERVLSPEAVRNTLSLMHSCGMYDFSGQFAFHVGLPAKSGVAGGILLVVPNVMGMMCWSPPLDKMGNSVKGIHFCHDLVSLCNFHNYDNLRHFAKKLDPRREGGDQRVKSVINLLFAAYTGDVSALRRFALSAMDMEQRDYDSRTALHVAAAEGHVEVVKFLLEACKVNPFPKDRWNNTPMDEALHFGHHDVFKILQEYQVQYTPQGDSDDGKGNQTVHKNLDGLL
Procedure: Assay 3: Determination of Glutaminase Enzyme Activity Using Glutaminase Enzyme from Mice Brain/Kidney
Step 1: Preparation of Tissue Homogenates:
Male Balb/c mice were administered 0.28 M ammonium chloride in drinking water for 7 days. The animals were sacrificed and brain/kidney organs collected on dry ice. […] The tissue was homogenized and supernatants were stored at −80° C. until the enzyme assay was performed.
Aim: Compounds were assessed for their ability to inhibit the enzymatic activity of L-glutaminase present in mice brain/kidney homogenate.
Protocol: The assay was performed using a colorimetric method using Nessler's Reagent by quantifying the amount of ammonia formed as a by product during the enzymatic conversion of L-glutamine to glutamate. In the routine assay, 16 μl of tissue homogenate is added to 33 μl of Tris-Hcl phosphate buffer (pH 8) along with 1 μl of DMSO/test compound containing the desired final concentration and vortexed briefly. 50 μl of 20 mM L-glutamine Tris buffer is added to start the reaction and incubated for 15 minutes at 37° C. The ammonia formed is detected by adding 20 μl of reaction mixture to cold water in a 96 well plate followed by 20 μl of Nessler's reagent. The colour developed is measured at 450 nm. Data Analysis: Activity of the test compound is reported as % inhibition and the data is analyzed using Graphpad Prism (Graphpad software; San Diego Calif.) for IC50 determination.

[2] = test system: MDA-MB-231; assay: In vitro cell proliferation assay (MTT), MDA-MB-231; assay type: cell-based; settings: Homo sapiens, 72 hours
Procedure: Assay 4: In Vitro Cell Proliferation Assay in Cancer Cell Lines
Growth inhibition assays were carried out using 10% FBS supplemented media. Cells were seeded at a concentration of 5000-20,000 cells/well in a 96-well plate. Test compounds at a concentration range from 0.01 to 10000 nM were added after 24 hours. Growth was assessed using the 3-[4,5-dimethylthiazol-2-yl]-2,5-diphenyltetrazolium bromide (MTT) dye reduction test at 0 h (prior to the addition of the test compound) and 72 hours after the addition of test compound. Absorbance was read on a Fluostar Optima (BMG Labtech, Germany) at a wave length of 450 nm. Data were analysed using GraphPad Prism and percent inhibition due to the test compound compared to the control was calculated accordingly.

Compound | inhibition at 0.1 µM [1] | inhibition at 1 µM [1] | GI50 [2] | inhibition at 0.1 µM ([1]; 0.1 μM, mice brain homogenate) | inhibition at 1 µM ([1]; 1 μM, mice brain homogenate)
O=C(Cc1ccccn1)Nc1ccc(N2CCC(c3nnc(NC(=O)Cc4cccc(OC(F)(F)F)c4)s3)CC2)nn1 [Example-17, 2-(Pyridin-2-yl)-N-(6-(4-(5-(2-(3-(trifluoromethoxy)phenyl)acetamido)-1,3,4-thiadiazol-2-yl)piperidin-1-yl)pyridazin-3-yl)acetamide] | 75 to 100% | 75 to 100% | < 0.1 µM |  | 
O=C(Cc1cccc(OC(F)(F)F)c1)Nc1ccc(N2CCC(c3nnc(NC(=O)Cc4cccnc4)s3)CC2)nn1 [Example-10, 2-(Pyridin-3-yl)-N-(5-(1-(6-(2-(3-(trifluoromethoxy)phenyl)acetamido)pyridazin-3-yl)piperidin-4-yl)-1,3,4-thiadiazol-2-yl)acetamide] |  |  | 0.1 to 0.25 µM | 50 to 75% | 75 to 100%
CS(=O)(=O)Nc1cccc(CC(=O)Nc2nnc(C3CCN(c4ccc(NC(=O)Cc5cccc(OC(F)(F)F)c5)nn4)CC3)s2)c1 [Example-11, 2-(3-(Methylsulfonamido)phenyl)-N-(5-(1-(6-(2-(3-(trifluoromethoxy)phenyl)acetamido)pyridazin-3-yl)piperidin-4-yl)-1,3,4-thiadiazol-2-yl)acetamide] |  |  | 0.25 to 0.5 µM | < 25% | 50 to 75%
O=C(Cc1cccc(OC(F)(F)F)c1)Nc1ccc(N2CCC(c3nnc(NC(=O)Cc4cccnc4)s3)CC2)cn1 [Example-4, 2-(Pyridin-3-yl)-N-(5-(1-(6-(2-(3-(trifluoromethoxy)phenyl)acetamido)pyridin-3-yl)piperidin-4-yl)-1,3,4-thiadiazol-2-yl)acetamide] |  |  | 0.25 to 0.5 µM | 25 to 50% | 50 to 75%
O=C(Cc1ccccc1F)Nc1ccc(N2CCC(c3nnc(NC(=O)Cc4ccccn4)s3)CC2)nn1 [Example-14, 2-(2-Fluorophenyl)-N-(6-(4-(5-(2-(pyridin-2-yl)acetamido)-1,3,4-thiadiazol-2-yl)piperidin-1-yl)pyridazin-3-yl)acetamide] |  |  | < 0.1 µM | 75 to 100% | 75 to 100%
O=C(Cc1cccc(OC(F)(F)F)c1)Nc1ccc(N2CCCC(c3nnc(NC(=O)Cc4cccnc4)s3)C2)cn1 (racemic) [Example 3, (RS)-2-(Pyridin-3-yl)-N-(5-(1-(6-(2-(3-(trifluoromethoxy)phenyl)acetamido)pyridin-3-yl)piperidin-3-yl)-1,3,4-thiadiazol-2-yl)acetamide] |  |  | 1 to 3 µM | 25 to 50% | 50 to 75%
O=C(Cc1cccc(OC(F)(F)F)c1)Nc1ccc(N2CCCC(c3nnc(NC(=O)Cc4ccccc4Cl)s3)C2)nn1 (centres unmarked) [Example-13, 2-(2-Chlorophenyl)-N-(5-(1-(6-(2-(3-(trifluoromethoxy)phenyl)acetamido)pyridazin-3-yl)piperidin-3-yl)-1,3,4-thiadiazol-2-yl)acetamide] |  |  |  | < 25% | 50 to 75%

Next, values leading:

inhibition at 0.1 µM [1] | inhibition at 1 µM [1] | GI50 [2] | inhibition at 0.1 µM ([1]; 0.1 μM, mice brain homogenate) | inhibition at 1 µM ([1]; 1 μM, mice brain homogenate) | Compound
 |  |  | 25 to 50% | 50 to 75% | O=C(Cc1ccccn1)Nc1ccc(N2CCC(c3nnc(NC(=O)Cc4c(F)ccc(F)c4F)s3)CC2)nn1 [Example-20, 2-(Pyridin-2-yl)-N-(6-(4-(5-(2-(2,3,6-trifluorophenyl)acetamido)-1,3,4-thiadiazol-2-yl)piperidin-1-yl)pyridazin-3-yl)acetamide]
 |  |  | 25 to 50% | 50 to 75% | O=C(Cc1cccc(OC(F)(F)F)c1)Nc1ccc(N2CCC(c3nnc(NC(=O)Cc4cccc(N5CCC5)c4)s3)CC2)nn1 [Example-34, 2-(3-(Azetidin-1-yl)phenyl)-N-(5-(1-(6-(2-(3-(trifluoromethoxy)phenyl)acetamido)pyridazin-3-yl)piperidin-4-yl)-1,3,4-thiadiazol-2-yl)acetamide]
 |  |  | 50 to 75% | 75 to 100% | O=C(Cc1cccc(OC(F)(F)F)c1)Nc1ccc(N2CCC(c3nnc(NC(=O)Cc4ccc5ncccc5c4)s3)CC2)nn1 [Example-30, 2-(Quinolin-6-yl)-N-(5-(1-(6-(2-(3-(trifluoromethoxy)phenyl)acetamido)pyridazin-3-yl)piperidin-4-yl)-1,3,4-thiadiazol-2-yl)acetamide]

— patent US10611759B2, “Glutaminase inhibitors” (Rhizen Pharmaceuticals SA, priority 2014, dated 2020)
